In ChEMBL document CHEMBL5316319, “Targeting Death-Associated Protein Kinases for Treatment of Human Diseases: Recent Advances and Future Directions” (J Med Chem, 2023):

Assays:
[1] = target: T1, Death-associated protein kinase 3 (Homo sapiens, UniProt O43293); test: Inhibition of human recombinant GST-fused DAPK3 (1 to 320 residues) expressed in Escherichia coli BL21 (DE3) assessed as inhibition constant using MYPT1 as peptide substrate incubated for 10 mins in presence of [gamma-32P]ATP by radiometric scintillation assay
[2] = target: Serine/threonine-protein kinase pim-1 (Homo sapiens, UniProt P11309); test: Inhibition of human full length-His6 tagged PIM1 (1 to 312 residues) expressed in Escherichia coli BL21 (DE3) assessed as inhibition constant using RSRHSSYPAGT as peptide substrate incubated for 10 mins in presence of [gamma-32P]ATP by radiometric scintillation assay
[3] = target: Serine/threonine-protein kinase pim-2 (Homo sapiens, UniProt Q9P1W9); test: Inhibition of human full length-His6 tagged PIM2 (1 to 311 residues) expressed in Escherichia coli BL21 (DE3) assessed as inhibition constant using RSRHSSYPAGT as peptide substrate incubated for 10 mins in presence of [gamma-32P]ATP by radiometric scintillation assay
[4] = target: T2, Serine/threonine-protein kinase pim-3 (Homo sapiens, UniProt Q86V86); test: Inhibition of human full length-His6 tagged PIM3 (1 to 326 residues) expressed in Escherichia coli BL21 (DE3) assessed as inhibition constant using RSRHSSYPAGT as peptide substrate incubated for 10 mins in presence of [gamma-32P]ATP by radiometric scintillation assay
[5] = target: T3, Death-associated protein kinase 1 (Homo sapiens, UniProt P53355); test: Inhibition of DAPK1 (1 to 285 residues) (unknown origin) expressed in Escherichia coli using KKLNRTLSFAEPG as substrate in presence of ATP by fluoro-spark kinase assay
[6] = target: T2, Serine/threonine-protein kinase pim-3; test: Inhibition of PIM3 (unknown origin) at 10 uM by (33P-ATP) filter-binding assay relative to control
[7] = target: T3, Death-associated protein kinase 1; test: Inhibition of DAPK1 (unknown origin) at 10 uM by (33P-ATP) filter-binding assay relative to control
[8] = target: Death-associated protein kinase 2 (Homo sapiens, UniProt Q9UIK4); test: Binding affinity to DAPK2 (unknown origin) assessed as dissociation constant
[9] = target: T1, Death-associated protein kinase 3; test: Binding affinity to DAPK3 (unknown origin) assessed as dissociation constant
[10] = target: T4, Serine/threonine-protein kinase 17B (Homo sapiens, UniProt O94768); test: Inhibition of recombinant GST-tagged DRAK2 (unknown origin) by promega ADP-Glo assay
T4 sequence (O94768 whole entry): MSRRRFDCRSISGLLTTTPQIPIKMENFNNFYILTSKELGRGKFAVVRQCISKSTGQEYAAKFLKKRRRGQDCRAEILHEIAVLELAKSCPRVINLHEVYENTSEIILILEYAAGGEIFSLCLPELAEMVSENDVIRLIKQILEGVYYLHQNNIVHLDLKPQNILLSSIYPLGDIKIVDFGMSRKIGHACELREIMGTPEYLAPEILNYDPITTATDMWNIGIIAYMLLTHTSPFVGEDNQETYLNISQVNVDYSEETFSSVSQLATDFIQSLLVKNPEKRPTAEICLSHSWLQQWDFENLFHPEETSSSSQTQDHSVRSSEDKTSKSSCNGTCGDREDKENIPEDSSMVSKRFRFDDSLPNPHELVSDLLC

[11] = target: T4, Serine/threonine-protein kinase 17B; test: Binding affinity to DRAK2 (unknown origin) assessed as dissociation constant
[12] = target: T3, Death-associated protein kinase 1; test: Inhibition of DAPK1 (unknown origin)
[13] = target: T3, Death-associated protein kinase 1; test: Inhibition of DAPK1 (unknown origin) in presence of 33P-ATP radiolabeled kinase assay
[14] = target: T5, Serine/threonine-protein kinase 17A (Homo sapiens, UniProt Q9UEE5); test: Inhibition of DRAK1 (unknown origin)
T5 sequence (Q9UEE5 whole entry): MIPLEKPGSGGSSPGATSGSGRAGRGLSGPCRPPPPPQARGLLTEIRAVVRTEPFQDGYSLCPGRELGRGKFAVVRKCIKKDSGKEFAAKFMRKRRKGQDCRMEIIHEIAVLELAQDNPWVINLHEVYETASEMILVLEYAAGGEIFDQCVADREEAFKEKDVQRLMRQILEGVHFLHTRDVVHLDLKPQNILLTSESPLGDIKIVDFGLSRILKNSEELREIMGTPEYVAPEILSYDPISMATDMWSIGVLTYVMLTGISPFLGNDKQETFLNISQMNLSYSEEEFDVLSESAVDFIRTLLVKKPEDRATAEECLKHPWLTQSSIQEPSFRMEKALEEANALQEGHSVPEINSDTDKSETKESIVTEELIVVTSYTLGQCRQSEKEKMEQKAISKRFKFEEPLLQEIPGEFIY

[15] = target: T4, Serine/threonine-protein kinase 17B; test: Inhibition of DRAK2 (unknown origin)
[16] = target: T1, Death-associated protein kinase 3; test: Inhibition of DAPK3 (unknown origin)

How did the Ki [1] turn out when `N#CCSc1nc2c(cnn2-c2cccc(Cl)c2)c(=O)[nH]1` was run?
Its Ki is 0.315 µM.

What about the Ki [2] of the same molecule?
Its Ki is 1.48 µM.

What about the Ki [3] of the same molecule?
The Ki was 17.3 µM.

And the Ki [4]?
The Ki was 0.072 µM.

`Nc1c(O)c(S(=O)(=O)O)c(O)c2c1C(=O)c1ccccc1C2=O` was tested. Which IC50 [5] did it give?
Its IC50 is 9.6 µM.

With `O=C1c2ccccc2C(=O)c2c1ccc(O)c2O` [ATHRAQUINONES A] as the molecule, how does the IC50 [5] read?
Its IC50 is 3.6 µM.

Which inhibition [6] does the source give for `CC(Sc1nc2c(cnn2-c2cccc(Cl)c2)c(=O)[nH]1)C(N)=O` (stereo not given) here?
Its inhibition is 76%.

And the inhibition [7]?
Its inhibition is 89%.

And the Kd [8]?
The Kd was 0.079 µM.

And the Kd [9]?
The Kd was 0.28 µM.

What about the Ki [1] of the same molecule?
The Ki was 0.26 µM.

And the Ki [2]?
Its Ki is 2.94 µM.

What about the Ki [3] of the same molecule?
Its Ki is 0.208 µM.

What about the Ki [4] of the same molecule?
The Ki was > 100 µM.

For `COC(=O)C1=C2Nc3ccccc3C23CC2N(C)[C@H]3C[C@H]1[C@@]2(C)C(C)=O` (stereo not given in full), which IC50 [10] is on record?
Its IC50 is 11.6 µM.

With `Nc1c(-c2n[nH]c(=S)o2)sc2ccc(Cl)cc12` as the molecule, how does the Kd [11] read?
The Kd was 0.25 µM.

How did the Ki [1] turn out when `CCC(Sc1nc2c(cnn2-c2cccc(F)c2)c(=O)[nH]1)C(N)=O` (stereo not given) was run?
Its Ki is 0.119 µM.

And the Ki [2]?
The Ki was 6.48 µM.

And the Ki [3]?
The Ki was > 100 µM.

What about the Ki [4] of the same molecule?
The Ki was 1.07 µM.

With `O=C1c2ccccc2C(=O)c2c(O)c(O)cc(O)c21` [PURPURIN] as the molecule, how does the IC50 [5] read?
Its IC50 is 0.89 µM.

With `CCc1ccccc1-c1nn(CCCCCCCCCCC(=O)Nc2cnnc(-c3ccccc3)c2)c(=N)cc1C` as the molecule, how does the IC50 [12] read?
Its IC50 is 13 µM.

`Cc1nc2c(OCc3ccccc3)ncnc2n1C(C)C` was tested. Which IC50 [13] did it give?
The IC50 was 23 µM.

With `COc1cnc(Nc2ccc(CS(C)(=O)=O)cc2)nc1Nc1cc(C2CC2)[nH]n1` as the molecule, how does the IC50 [12] read?
Its IC50 is 0.37 µM.

What about the IC50 [14] of the same molecule?
The IC50 was 0.1 µM.

And the IC50 [15]?
The IC50 was 0.01 µM.

What about the IC50 [16] of the same molecule?
The IC50 was 0.31 µM.

`COc1cc(-c2ccc3ncc(-c4ccc(C(=O)NCCN(C)C)cc4)n3n2)ccc1O` was tested. Which IC50 [12] did it give?
The IC50 was 0.247 µM.

For `Nc1c(-c2n[nH]c(=S)o2)sc2ncc(-c3ccsc3)cc12`, which Kd [11] is on record?
The Kd was 0.008 µM.

Which IC50 [13] does the source give for `CC(C)(C)n1c(-c2ccccc2)nc2c(OCc3ccccc3)ncnc21` here?
Its IC50 is 2.5 µM.

Which IC50 [13] does the source give for `c1ccc(COc2ncnc3c2ncn3Cc2ccccc2)cc1` here?
The IC50 was 5.9 µM.

With `CC(C)(Sc1nc2c(cnn2-c2ccccc2)c(=O)[nH]1)C(N)=O` as the molecule, how does the Ki [1] read?
Its Ki is 0.126 µM.

And the Ki [2]?
Its Ki is 6.31 µM.

And the Ki [3]?
The Ki was > 100 µM.

And the Ki [4]?
Its Ki is 2.5 µM.
